How the values were obtained:
human HPK1 [1] = molecular target: T1, human HPK1 (Homo sapiens (Human), UniProt Q92918); test: 33P isotope-labeled kinase activity assay (Method 1); assay type: biochemical; conditions: HPK1 enzyme concentration 8.1 nM; ATP concentration 15 μM
Description: Method 1: The IC50 value was assayed by ^33P isotope-labeled kinase activity assay to evaluate the inhibitory ability of a test compound on human HPK1.
(§1) Enzyme buffer conditions: 50 mM Hepes (pH 7.5), 10 mM MgCl2, 1 mM EGTA, 0.01% Brij35, 2 mM DTT.
(§2) Assay steps: A compound was diluted 3-fold with DMSO in a dilution plate, with a final initial concentration of […] and 10 concentration gradient points. The compound was diluted 50-fold into the kinase reaction buffer, and the mixture was shaken on a shaker for 20 minutes. The kinase was prepared with the enzyme reaction buffer. 2 μL of kinase was added to each well of a reaction plate. 1 μL of the diluted compound in the buffer was added to each well. The plate was sealed with a sealing film, centrifuged at 1000 g for 30 seconds, and placed at room temperature for 10 minutes. The mixed solution of ATP/MBP was prepared with the enzyme reaction buffer. 2 μL of the mixed solution of ATP/MBP was added to the reaction plate. The plate was sealed with a sealing film, and centrifuged at 1000 g for 30 seconds. The mixture in the plate was reacted at room temperature for 60 minutes. […] The plate was incubated at 25° C. for 40 min. […] The plate was incubated at 25° C. for 40 min. The RLU (relative luminescence unit) signal was read with a BMG microplate reader, and the signal intensity was used to characterize the activity of the kinase.

human HPK1 [2] = molecular target: T1, human HPK1; test: Kinase activity assay using ADP-Glo method (Method 2); assay type: biochemical; conditions: HPK1 enzyme concentration 0.1 nM; ATP concentration 10 μM
Description: Method 2: The IC50 value was assayed by the kinase activity assay using ADP-Glo method to evaluate the inhibitory ability of a test compound on human HPK1.
Enzyme buffer conditions: 50 mM Hepes (pH 7.5), 10 mM MgCl2, 1 mM EGTA, 0.01% Brij35, 2 mM DTT. […]
as §2, with “4-fold” for “3-fold”
(§3) The kinase activity data were expressed as the comparison of the kinase activity of a group with a test compound and the kinase activity of the blank group (containing only DMSO). The IC50 value was obtained by curve fitting using Prism software (GraphPad7.0).

[3] = In vitro metabolic stability in human liver microsomes; assay type: in vitro ADME; conditions: 1 μM compound, 0.5 mg/mL protein
Description: The in vitro metabolic stability of the compounds of the present disclosure in human was investigated by the metabolic stability in human liver microsomes.
Assay conditions: 1 μM of a compound was incubated with human liver microsomes supplemented with NADPH regeneration system at 37° C. for a certain period of time up to 60 minutes. The concentration of the compound in the resulting sample was assayed by LC-MS/MS method.
Assay procedure: 96-well incubation plates were named T0, T5, T15, T30, T45, T60, Blank60 and NCF60, respectively. The reaction time corresponding to the incubation plates were 0, 5, 15, 30, 45 and 60 minutes, respectively. No test sample or control compound was added to the Blank60 plate, and samples were taken after 60 minutes of incubation. Potassium phosphate buffer was used instead of NADPH regeneration system solution in the NCF60 plate, and the plate was incubated for 60 minutes. All the samples of the time points were from a single well.
5 μL of a test sample or control sample working solution and 100 μL of microsome working solution (the concentration of liver microsome protein was 0.5 mg/mL) were added to the T0, T5, T15, T30, T45, T60 and NCF60 plates, respectively. Only microsome working solution was added to the Blank60 plate. Then, the Blank60, T5, T15, T30, T45 and T60 plates, except TO and NCF60 plates, were placed in a 37° C. water bath, and preincubated for about 10 minutes.
180 μL of stop solution (the stop solution was a solution of tolbutamide (100 ng/mL) in acetonitrile and methanol (95:5, V/V)) was firstly added to the sample of TO plate, and then the NADPH regeneration system working solution was added.
50 μL of potassium phosphate buffer was added to each well of the NCF60 plate, and the plate was incubated for 60 minutes.
After the pre-incubation of Blank60, T5, T15, T30, T45 and T60 plates, 44 μL of NADPH regeneration system working solution was added to each sample well to initiate the reaction. Therefore, for the sample wells containing a test sample or control sample working solution, the final concentration of the reaction was […], the concentration of liver microsomes was 0.5 mg/mL, and the final concentrations of DMSO and acetonitrile in the reaction system were 0.01% (v/v) and 0.99% (v/v), respectively.
After being incubated for an appropriate time (e.g., 5, 15, 30, 45, and 60 min), 180 μL of stop solution was added to each well of the test sample and control sample of Blank60, T5, T15, T30, T45, T60, and NCF60 plates, respectively, to terminate the reaction.
All sample plates were shaken and centrifuged for 10 min. 80 μL of the supernatant of a test sample was taken and diluted into 240 μL of a mixture of acetonitrile and water (1:9, V/V) containing 0.1% formic acid for LC-MS/MS analysis.
By calculating the corresponding time point and the remaining percentage of a compound, the half-life T1/2 and clearance rate CLint(liver) of the compound in human liver microsome metabolism were obtained.

human GLK = human GLK (Homo sapiens (Human), UniProt Q8IVH8); test: Kinase activity assay using ADP-Glo method, GLK; assay type: biochemical; conditions: GLK enzyme concentration 8 nM; ATP 20 μM
Description: The IC50 value was assayed by the kinase activity assay using ADP-Glo method to evaluate the inhibitory ability of a test compound on human GLK.
as §1
Preparation of the mixture of kinase and substrate: the concentration of GLK in the reaction solution was 8 nM, the concentration of ATP was […], and the concentration of MBP was 0.05 mg/mL.
Assay steps: A compound was diluted 4-fold with DMSO in a dilution plate, with a final initial concentration of […] and 10 concentration gradient points. The compound was diluted 50-fold into the kinase reaction buffer, and the mixture was shaken on a shaker for 20 minutes. The kinase was prepared with the enzyme reaction buffer. 2 μL of kinase was added to each well of a reaction plate. 1 μL of the diluted compound in the buffer was added to each well. The plate was sealed with a sealing film, centrifuged at 1000 g for 30 seconds, and placed at room temperature for 10 minutes. The mixed solution of ATP/MBP was prepared with the enzyme reaction buffer. 2 μL of the mixed solution of ATP/MBP was added to the reaction plate. The plate was sealed with a sealing film, and centrifuged at 1000 g for 30 seconds. The mixture in the plate was reacted at room temperature for 60 minutes. 4 μL of ADP-Glo was transferred to the 384 reaction plate, and centrifuged at 1000 rpm/min for 1 min. The plate was incubated at 25° C. for 40 min. 8 μL of detection solution was transferred to the 384 reaction plate, and centrifuged at 1000 rpm/min for 1 min. The plate was incubated at 25° C. for 40 min. The RLU (relative luminescence unit) signal was read with a BMG microplate reader, and the signal intensity was used to characterize the activity of the kinase.
as §3

[4] = Pharmacokinetic evaluation in mice; assay type: in vivo, female Balb/c mice
Description: Assay procedure: 10% DMSO+20% PEG400+70% (30% SBE-P3-CD aqueous solution) (the trifluoroacetate of compound 4, the trifluoroacetate of compound 9) or 10% SBE-β-CD aqueous solution (the trifluoroacetate of compound 24-3) was injected into female Balb/c mice (overnight fasting, 7-9 weeks old) via the tail vein. Female Balb/c mice (overnight fasting, 7-9 weeks old) were gavaged with 10% DMSO+20% PEG400+70% (30% SBE-β-CD aqueous solution (the trifluoroacetate of compound 4, the trifluoroacetate of compound 9) or 10% SBE-P3-CD aqueous solution (the trifluoroacetate of compound 24-3) at dosages shown in Table 7. About 30 μL of blood of the two groups of animals was collected from the jugular vein at 0.0833, 0.25, 0.5, 1.0, 2.0, 4.0, 8.0, and 24 hours after the administration, and from the tail vein at 0.25, 0.5, 1.0, 2.0, 4.0, 8.0, and 24 hours after the administration, respectively, and placed in an anticoagulant tube with EDTA-K2 added. The tube was centrifuged to separate the plasma. The plasma concentration was assayed by LC-MS/MS. The relevant pharmacokinetic parameters were calculated with WinNonlin™ Version 6.3 (Pharsight, Mountain View, CA) pharmacokinetic software using the non-compartmental linear logarithmic trapezoidal method.

MDR1 (P-glycoprotein) = test: Permeability evaluation in MDR1-MDCK II cells; assay type: in vitro ADME; conditions: dog
Description: Cell line: The MDR1-MDCK II cell line authorized by Piet Borst's laboratory at the Netherlands Cancer Research Institute was used in this assay as an in vitro model for the permeability evaluation assay. The cells were inoculated in a Transwell-96 well cell plate at a density of 2.3×10^5 cells/cm^2, and cultured in a carbon dioxide incubator for 4-7 days before use in the transport assay.
The administration concentration of the test sample was 2.00 μM.
Test direction and number of parallel samples: bidirectional A-B and B-A, 2 parallels
Transport buffer (TB): HBSS solution containing 10 mM HEPES (pH 7.40±0.05)
Incubation conditions: 37±1° C., 5% CO2, incubated for 150 minutes
Control compounds: Nadolol and metoprolol were used as low-permeability and high-permeability control compounds. Digoxin was used as a substrate of P-glycoprotein. The administration concentration of nadolol and metoprolol was 2.00 μM, and the administration concentration of digoxin was 10.0 μM.
After the transport assay, the integrity of the MDR1-MDCK II cell layer was assayed by the Lucifer Yellow Rejection Assay. The remaining solution in the apical and basolateral wells was removed. 75 μL of TB containing 100 μM Lucifer Yellow was added to the apical well, and 250 μL of TB was added to the basolateral well. The cell plate was incubated in a cell culture incubator at 37±1° C., 5% CO2 and saturated humidity for 30 minutes. Then, 20 μL of sample was taken from the apical well and mixed with 60 μL of TB, and 80 μL of sample was taken from the basolateral well. The relative fluorescence unit (RFU) was measured at 425/528 nm (excitation/emission) using a microplate reader.
In this assay, the sample analysis of the test samples and control compounds of nadolol, metoprolol, and digoxin was performed by liquid chromatography-tandem mass spectrometry (LC-MS/MS). The retention time of the analytes and internal standards, chromatogram acquisition, and chromatogram integration were processed using the software Analyst (Sciex, Framingham, MA, USA). The sample analysis was semi-quantitatively determined using the peak area of analyte and the peak area of internal standard.
VR is the volume of the receiver end solution (0.075 mL for side A, and 0.25 mL for side B); Area is the relative surface area of the cell monolayer (0.0804 cm2); Time is the incubation time (9000 s); C0 is the peak area ratio of the compound at the administration end; VD is the volume of the administration end (0.075 mL for side A, and 0.25 mL for side B); CD and CR are the peak area ratios of the compound at the administration end and the receiver end, respectively.

[5] = female, Balb/c, mouse, plasma, IV 2 mg/kg
[6] = female, Balb/c, mouse, plasma, PO 75 mg/kg

human GLK, sequence (Q8IVH8 whole entry): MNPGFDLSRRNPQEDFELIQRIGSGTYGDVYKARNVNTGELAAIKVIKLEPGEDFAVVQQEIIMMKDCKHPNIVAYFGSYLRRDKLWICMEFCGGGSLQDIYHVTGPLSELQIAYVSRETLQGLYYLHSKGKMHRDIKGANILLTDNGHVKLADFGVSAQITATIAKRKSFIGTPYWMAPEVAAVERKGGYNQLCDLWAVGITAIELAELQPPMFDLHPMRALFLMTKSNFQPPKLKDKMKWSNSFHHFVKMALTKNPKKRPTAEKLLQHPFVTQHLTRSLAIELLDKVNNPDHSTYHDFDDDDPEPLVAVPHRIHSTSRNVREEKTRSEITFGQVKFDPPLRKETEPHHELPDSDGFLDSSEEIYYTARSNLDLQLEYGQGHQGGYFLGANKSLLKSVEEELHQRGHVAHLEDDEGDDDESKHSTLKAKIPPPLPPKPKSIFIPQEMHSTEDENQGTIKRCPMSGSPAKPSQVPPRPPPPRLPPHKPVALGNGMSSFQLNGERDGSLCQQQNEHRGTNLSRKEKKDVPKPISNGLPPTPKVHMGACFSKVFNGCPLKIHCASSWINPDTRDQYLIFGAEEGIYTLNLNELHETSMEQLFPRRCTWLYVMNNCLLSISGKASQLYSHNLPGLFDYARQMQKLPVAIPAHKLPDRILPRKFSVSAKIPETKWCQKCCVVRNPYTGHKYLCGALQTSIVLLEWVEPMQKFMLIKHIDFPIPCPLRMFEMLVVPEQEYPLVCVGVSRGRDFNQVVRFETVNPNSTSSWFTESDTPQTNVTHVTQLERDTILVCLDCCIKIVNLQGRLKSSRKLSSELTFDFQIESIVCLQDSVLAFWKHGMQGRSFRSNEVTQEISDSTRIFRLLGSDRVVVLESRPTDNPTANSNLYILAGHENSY
T1 sequence (Q92918 whole entry): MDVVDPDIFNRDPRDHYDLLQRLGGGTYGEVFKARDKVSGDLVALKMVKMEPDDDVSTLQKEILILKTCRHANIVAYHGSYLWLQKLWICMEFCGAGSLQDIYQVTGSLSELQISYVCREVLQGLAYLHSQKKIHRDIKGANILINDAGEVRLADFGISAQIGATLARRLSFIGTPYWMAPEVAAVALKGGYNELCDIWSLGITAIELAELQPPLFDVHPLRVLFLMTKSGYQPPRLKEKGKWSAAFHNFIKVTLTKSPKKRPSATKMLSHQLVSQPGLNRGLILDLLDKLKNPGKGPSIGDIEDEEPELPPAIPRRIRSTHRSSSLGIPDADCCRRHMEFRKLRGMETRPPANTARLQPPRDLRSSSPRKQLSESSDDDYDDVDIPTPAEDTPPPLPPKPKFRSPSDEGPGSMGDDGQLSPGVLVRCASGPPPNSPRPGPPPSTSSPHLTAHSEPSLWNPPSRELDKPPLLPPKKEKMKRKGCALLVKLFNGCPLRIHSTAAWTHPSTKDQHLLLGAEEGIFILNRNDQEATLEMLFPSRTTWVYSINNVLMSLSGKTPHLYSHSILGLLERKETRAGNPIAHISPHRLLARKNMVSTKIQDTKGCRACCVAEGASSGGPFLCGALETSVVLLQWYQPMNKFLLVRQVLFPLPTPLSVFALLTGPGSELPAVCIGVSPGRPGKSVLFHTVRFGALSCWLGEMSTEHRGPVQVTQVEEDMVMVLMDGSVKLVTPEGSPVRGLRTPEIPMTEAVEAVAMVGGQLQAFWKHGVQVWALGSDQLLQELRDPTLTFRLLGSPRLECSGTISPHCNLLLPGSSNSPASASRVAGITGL

CN(C)Cc1cc(Nc2ncc(-c3cnc4cc(F)ccn34)c3c2C(=O)NC3)ccc1N1CCOCC1 [Compound 2]
IC50 (human HPK1 [1]): 18 nM

O=C1NCc2c(-c3cnc4cc(F)ccn34)ccc(Nc3ccc4c(n3)OC[C@H]3COCCN43)c21 [Compound 9]
IC50 (human HPK1 [2]): 0.7 nM
CLint scaled at 1 μM [3]: 39 mL/min/kg
half-life at 1 μM [3]: 32 min
IC50 (human GLK): 115 nM

O=C1NCc2c(-c3cnc4cc(F)ccn34)ccc(Nc3ccc4c(n3)OC[C@H]3COCCN43)c21 [Trifluoroacetate of compound 9]
Tlast ([4]; IV 2 mg/kg): 2 h
Tlast ([4]; PO 75 mg/kg): 8 h
AUC(0-inf) [4, 5]: 1.95 µM·h
AUC(0-t) [4, 5]: 1.93 µM·h
C0 [4, 5]: 6.06 µM
clearance [4, 5]: 36 mL/min/kg
half-life [4, 5]: 18 min
Vd ([4]; female, Balb/c, mouse, plasma, IV 2 mg/kg, read-out: Vdss): 0.8 L/kg
AUC(0-inf) [4, 6]: 108 µM·h
AUC(0-t) [4, 6]: 108 µM·h
Cmax [4, 6]: 39.8 µM
Tmax [4, 6]: 48 min
half-life [4, 6]: 48 min
bioavailability ([4]; female, Balb/c, mouse, plasma, PO 75 mg/kg vs IV 2 mg/kg, calculated using AUC0-last): 148%

CN1Cc2nc(Nc3ccc(-c4cnc5cc(F)ccn45)c4c3C(=O)NC4)ccc2N2CCOCC2C1 (stereo not drawn) [Trifluoroacetate of compound 16]
IC50 (human GLK): 277 nM

Cn1ccc2c(-c3ncc(Nc4ccc5c(n4)OC[C@H]4COCCN54)c4c3CNC4=O)ccnc21 [Trifluoroacetate of compound 20]
CLint scaled at 1 μM [3]: 63 mL/min/kg
half-life at 1 μM [3]: 20 min
Papp A→B at 150 min, 2 μM (MDR1 (P-glycoprotein); pH 7.4, 2.00 μM, 150 minutes): 4.61 ×10⁻⁶ cm/s
Papp B→A at 150 min, 2 μM (MDR1 (P-glycoprotein); pH 7.4, 2.00 μM, 150 minutes): 22.5 ×10⁻⁶ cm/s
efflux ratio at 150 min, 2 μM (MDR1 (P-glycoprotein); pH 7.4, 2.00 μM, 150 minutes): 4.88
Papp at 150 min, 2 μM (MDR1 (P-glycoprotein); pH 7.4, class by Papp, read-out: Conclusion of the permeability): 1 to 5.5 ×10⁻⁶ cm/s
IC50 (human GLK): 198 nM
